“Also recorded” adds a separate entry of the source.
Legend:
K-Ras G12D = molecular target: T1, K-Ras G12D (Homo sapiens, UniProt P01116, G12D); assay: Covalent binding of electrophile compounds to K-Ras G12D (mass spectrometry)
T1 construct: Rec full length G12D became loaded with either GDP or GTPyS and Mg2+; His tag
Experimental: FIGS. 13A-13E. […] FIG. 13B and FIG. 13D were performed after 5 hours. FIG. 13C and FIG. 13E were performed at 23 hours.
FIGS. 15A-15D. Experiments with Stereoisomers of Difluorophenoxy-6B9; Kras G12D/GTPyS/Mg2+, DMSO control, 2 h incubation at RT; The binding of FB9 to Kras G12D was compared with the stereoisomers of Difluorophenoxy-6B9 (53, 54); FB9 bound 100% after 2 h incubation; Difluorophenoxy-6B9 (compound ‘53’) bound to about 62% compared to FB9 under the same condition; The stereoisomer (‘54’) of compound ‘53’ bound to roughly 35% compared to FB9 which is roughly 50% of compound ‘53’; Partial stereospecific interaction.

[1] = Reactivity of FB9 with BME; assay type: physicochemical; settings: 1 mM FB9, 5 mM BME, 37° C., 55 minutes
Experimental: FIGS. 20A-20C. Reactivity of Tetrafluorophenoxy-6B9 (FB9) with BME; experiment was done with 1 mM FB9 and minus or plus 5 mM BME at 37° C.

fmeKRAS4b = molecular target: T2, fmeKRAS4b (Homo sapiens, UniProt P01116); assay: MALDI-TOF analysis of modification of processed (farnesylated, carboxymethylated) KRAS4b; assay type: binding
T2 construct: GG (two N-terminal glycines in place of Met1, remnant of the construct) (N); made in house; host or cells: SF9 insect cells
Experimental: FIG. 36. Modification of fmeKRAS4b by FB9. Recombinant fmeKRAS4b was loaded with GDP or GppNHp (a nonhydrolyzable analogue of GTP), then reacted with FB9 at 37° C. for 100 min.
Modification of processed (farnesylated and carboxylmethylated KRAS4b). Protein prep GG-HsKRAS-4b, RP1151105092454 FmeKRAS4b (FIG. 47A) was modified by FB9 with 7.6-fold molar excess of FB9 for 1 h at 37° C., followed by 16 h at room temperature (22° C.). […] To identify the modified amino acid residues protein preparation was digested by trypsin.
During fragmentation, these modified peptides yielded intensive fragment corresponding to unmodified peptide and fragments of peptide (mostly without modification).
These peptides were modified on His residues. To identify which His was modified (i.e. 95 or 96 in the sequence of used recombinant KRAS) fragmentation spectra were analyzed in BioTools when FB9 modification (C17H20Cl1N2O4, 350/351) was set on one of these His residues in Sequence Editor.
In fragmentation spectrum of 1554 a fragment 825.409 was present but not in a spectrum of 1203. When FB9 modification was on His-7 this fragment was assigned by BioTools as modified y-3. Manual examination of the spectrum confirmed this conclusion.

[2] = molecular target: T3, KRAS4b (1-188), unprocessed (Homo sapiens, UniProt P01116); assay: MALDI-TOF analysis of modification of unprocessed KRAS4b; assay type: binding
T3 construct: G (one extra N-terminal glycine before Met1, remnant of the construct) (N); made in house; host or cells: E. coli
Experimental: FIG. 27. Comparing Gel Mobility and Antibody Reactivity of Different Purified K-Ras 4B Forms. E. Coli: unprocessed K-ras 4B purified from E. coli. Fme: processed K-ras 4B purified from SF9 cells. FB9: unprocessed K-ras 4B labeled with FB9 to about 70%.
Chemical modification of unprocessed KRAS-4b at His-95 (protein G-Hs.KRAS4b(1-188), mass (average) 21481.59 Da.
KRAS4b (FIG. 43) was modified by FB9 in vitro (using 8.8-fold molar excess of FB9 for 1 h at 37° C., followed by 16 h at room temperature, 22° C.). […] Molecular species with 1 and 2 and 3 modification groups were present (FIG. 44).
To identify the modified amino acid residues, the protein preparation was digested by protease Glu-C. […] Peptide with m/z 1735 corresponds to sequence GKKKKKKSKTKCVIM (SEQ ID NO: 3) (174-189) and m/z 2085 corresponds to the same peptide modified by FB9 at Cys-186 (confirmed by fragmentation).
To identify other potential residues modified by FB9, peptides obtained after digestion by Glu-C were further digested by trypsin (FIG. 46A).

[3] = tested on: Ras-less cells exogenously expressing K-Ras G12D; assay: EGF stimulation plus FB9 in G12D expressing RAS-less MEFS; assay type: cell-based; settings: EGF for 30 and 60 minutes, FB9 at various concentrations
Experimental: FIG. 22. Cell Based Assays with G12D expressing RAS-less MEFS; Ras-less cells exogenously expressing K-Ras G12D were stimulated with EGF for 30 and 60 minutes. Concomitantly FB9 was added at various concentrations. Similar experiments were done with pancreatic cell lines expressing various oncogenic mutations. […] Growth curves were also performed.

Kras = assay: Interaction of FB9 with Kras in the absence or presence of BME; assay type: binding, human; settings: RT

SMILES: COc1ccc(Cl)cc1C(=O)N1CCC[C@H](C(=O)NCC(=O)COc2c(F)c(F)cc(F)c2F)C1 [FB9, (3S)-1-[(5-Chloro-2-methoxyphenyl)carbonyl]-N-[2-oxo-3-(2,3,5,6-tetrafluorophenoxy)propyl]piperidine-3-carboxamide]
- bound better than enantiomer FB9D (K-Ras G12D; K-Ras (G12D), GTPyS/Mg, 50 μM for 2.5 h at RT): 25-30%
- labelling at a second site (K-Ras G12D; K-Ras/GDP/Mg2+, 5 h): significantly labelled at a second site after 5 h
- bound to Kras G12D (K-Ras G12D; Kras G12D/GTPyS/Mg2+, 2 h incubation at RT): 100%
- binding to GTPyS versus GDP bound K-Ras G12D (K-Ras G12D; ~10 μM protein, 100 μM compound, RT, 5 and 23 hours): bound better when K-Ras was in complex with GTPyS/Mg2+
- product formed with BME (reduction of the free compound peak) [1]: about 25%
- extent of chemical modification of FmeKRAS4b (fmeKRAS4b; 7.6-fold molar excess of FB9, 1 h at 37° C., then 16 h at 22° C.): major form represented species with 1 added modification group
- covalent modification, GDP versus GppNHp loaded protein (fmeKRAS4b; 37° C. for 100 min, 350 Da mass addition): more pronounced when GTP analogue was present
- residue modified in FME-Kras4B (fmeKRAS4b; recombinant farnesylated-carboxymethylated protein): covalently modifies histidine 95 residue (H95); also recorded: His7 (i.e. H95 in the native protein) is modified
- extent of chemical modification of unprocessed KRAS4b ([2]; 8.8-fold molar excess of FB9, 1 h at 37° C., then 16 h at 22° C.): close to complete
- unprocessed K-ras 4B labeled with FB9 ([2]; protein preparation used for gel mobility comparison): about 70%
- K-Ras protein levels [3]: Changes at K-Ras protein levels are visible
- reactivity with Kras when BME is titrated in (Kras): reactivity of the compound being reduced

Source: patent US11541044B2, “K-Ras modulators” (The Regents of the University of California, priority 2015, dated 2023)
